Publication PMC5761851, “Application of a phenotypic drug discovery strategy to identify biological and chemical starting points for inhibition of TSLP production in lung epithelial cells” (PLoS ONE, 2018)
“And” between values parts separate entries of the source, which are not always exact repeats. Equal entries are not always repeated. Where two headings read alike, the source gives them in different places.

Assays:
[1] = molecular target: T1, V2 (Homo sapiens, UniProt P30518); assay: BioPrint panel: V2 (h) (agonist); format: binding; conditions: 1 micromolar, read-out: percentage of inhibition of activity
T1 construct: purchased Eurofins Pharma Discovery Services (KinaseProfiler; Cerep BioPrint panel)
Text: (§1) Supplement pone.0189247.s004.xlsx, sheet "Bioprint Selectivity Panel" | column: %

[2] = molecular target: T2, CB1 (Homo sapiens, UniProt P21554); assay: BioPrint panel: CB1 (h) (agonist); format: binding; conditions: 1 micromolar, read-out: percentage of inhibition of activity
T2 construct: purchased Eurofins Pharma Discovery Services (KinaseProfiler; Cerep BioPrint panel)
Text: as §1

[3] = molecular target: T3, motilin (Homo sapiens, UniProt O43193); assay: BioPrint panel: motilin (h) (agonist); format: binding; conditions: 1 micromolar, read-out: percentage of inhibition of activity
T3 construct: purchased Eurofins Pharma Discovery Services (KinaseProfiler; Cerep BioPrint panel)
Text: as §1

[4] = molecular target: T4, 5-HT1D (Rattus norvegicus, UniProt P28565); assay: BioPrint panel: 5-HT1D (agonist); format: binding; conditions: 1 micromolar, read-out: percentage of inhibition of activity
T4 construct: purchased Eurofins Pharma Discovery Services (KinaseProfiler; Cerep BioPrint panel)
Text: as §1

[5] = molecular target: PDE6 (Bos taurus, UniProt P11541+P23439); assay: BioPrint panel: PDE6; format: biochemical
Experimental: General selectivity profiling was performed at Eurofins Pharma Discovery Services using the BioPrint® panel and reference database. The panel included 104 binding assays (non-peptide, peptide and nuclear receptors, ion channels and amine transporters) and 41 cell based and enzyme assays (including 10 kinases, 9 proteases and 5 phosphodiesterases) (S4 Table). More than 70% were human targets. Compound 4 was tested at a concentration of 1 μM in duplicate (10 μM for P-gp and CYP enzymes). The resulting bioactivity fingerprint was compared with a database of >2,500 BioPrint marketed drugs and reference compounds. IC50 values for selected activities were further characterized at 8 concentrations in duplicate.

[6] = molecular target: T5, alpha 2C (Homo sapiens, UniProt P18825); assay: BioPrint panel: alpha 2C (h) (antagonist); format: binding; conditions: 1 micromolar, read-out: percentage of inhibition of activity
T5 construct: purchased Eurofins Pharma Discovery Services (KinaseProfiler; Cerep BioPrint panel)
Text: as §1

[7] = molecular target: T6, A2A (Homo sapiens, UniProt P29274); assay: BioPrint panel: A2A (h) (agonist); format: binding; conditions: 1 micromolar, read-out: percentage of inhibition of activity
T6 construct: purchased Eurofins Pharma Discovery Services (KinaseProfiler; Cerep BioPrint panel)
Text: as §1

[8] = molecular target: T7, kappa (KOP) (Rattus norvegicus, UniProt P34975); assay: BioPrint panel: kappa (KOP) (agonist); format: binding; conditions: 1 micromolar, read-out: percentage of inhibition of activity
T7 construct: purchased Eurofins Pharma Discovery Services (KinaseProfiler; Cerep BioPrint panel)
Text: as §1

[9] = molecular target: T8, NK2 (Homo sapiens, UniProt P21452); assay: BioPrint panel: NK2 (h) (agonist); format: binding; conditions: 1 micromolar, read-out: percentage of inhibition of activity
T8 construct: purchased Eurofins Pharma Discovery Services (KinaseProfiler; Cerep BioPrint panel)
Text: as §1

[10] = molecular target: T9, ZAP-70 (Homo sapiens, UniProt P43403); assay: BioPrint panel: ZAP70 kinase (h); format: biochemical; conditions: 1 micromolar, read-out: percentage of inhibition of activity
T9 construct: purchased Eurofins Pharma Discovery Services (KinaseProfiler; Cerep BioPrint panel)
T9 sequence (P43403 1-619): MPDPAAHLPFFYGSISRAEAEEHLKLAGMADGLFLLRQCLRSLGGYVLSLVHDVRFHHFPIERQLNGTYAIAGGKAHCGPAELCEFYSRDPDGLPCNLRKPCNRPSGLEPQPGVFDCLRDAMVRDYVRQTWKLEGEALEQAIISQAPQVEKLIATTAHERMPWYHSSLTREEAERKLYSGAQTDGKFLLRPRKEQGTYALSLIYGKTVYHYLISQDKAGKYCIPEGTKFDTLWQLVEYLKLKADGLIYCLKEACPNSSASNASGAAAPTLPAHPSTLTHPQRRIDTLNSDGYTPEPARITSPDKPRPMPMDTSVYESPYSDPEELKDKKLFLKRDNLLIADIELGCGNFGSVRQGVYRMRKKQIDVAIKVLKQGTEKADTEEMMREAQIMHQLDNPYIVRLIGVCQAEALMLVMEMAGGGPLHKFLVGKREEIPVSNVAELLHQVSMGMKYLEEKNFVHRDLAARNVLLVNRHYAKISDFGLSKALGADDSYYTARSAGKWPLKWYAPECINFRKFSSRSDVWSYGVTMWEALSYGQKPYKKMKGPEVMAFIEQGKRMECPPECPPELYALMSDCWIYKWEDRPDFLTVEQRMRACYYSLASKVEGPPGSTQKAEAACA
Text: as §1

[11] = molecular target: T10, ACE-2 (Homo sapiens, UniProt Q9BYF1); assay: BioPrint panel: ACE-2 (h); format: biochemical; conditions: 1 micromolar
T10 construct: purchased Eurofins Pharma Discovery Services (KinaseProfiler; Cerep BioPrint panel)
Text: as §1

[12] = molecular target: T11, xanthine oxidase/ superoxide O2- scavenging (Bos taurus, UniProt P80457); assay: BioPrint panel: xanthine oxidase/ superoxide O2- scavenging; format: biochemical; conditions: 1 micromolar, read-out: percentage of inhibition of activity
T11 construct: purchased Eurofins Pharma Discovery Services (KinaseProfiler; Cerep BioPrint panel)
Text: as §1

[13] = molecular target: T12, 5-HT2A (Homo sapiens, UniProt P28223); assay: BioPrint panel: 5-HT2A (h) (agonist); format: binding; conditions: 1 micromolar, read-out: percentage of inhibition of activity
T12 construct: purchased Eurofins Pharma Discovery Services (KinaseProfiler; Cerep BioPrint panel)
Text: as §1

[14] = test system: ATPase (Na+/K+); assay: BioPrint panel: ATPase (Na+/K+); format: biochemical; conditions: 1 micromolar
Text: as §1

[15] = molecular target: T13, BB3 (Homo sapiens, UniProt P32247); assay: BioPrint panel: BB3 (h) (agonist); format: binding; conditions: 1 micromolar, read-out: percentage of inhibition of activity
T13 construct: purchased Eurofins Pharma Discovery Services (KinaseProfiler; Cerep BioPrint panel)
Text: as §1

[16] = molecular target: T14, sst1 (Homo sapiens, UniProt P30872); assay: BioPrint panel: sst1 (h) (agonist); format: binding; conditions: 1 micromolar, read-out: percentage of inhibition of activity
T14 construct: purchased Eurofins Pharma Discovery Services (KinaseProfiler; Cerep BioPrint panel)
Text: as §1

[17] = molecular target: T15, beta 1 (Homo sapiens, UniProt P08588); assay: BioPrint panel: beta 1 (h) (agonist); format: binding; conditions: 1 micromolar, read-out: percentage of inhibition of activity
T15 construct: purchased Eurofins Pharma Discovery Services (KinaseProfiler; Cerep BioPrint panel)
Text: as §1

[18] = molecular target: T16, choline transporter (CHT1) (Homo sapiens, UniProt Q9GZV3); assay: BioPrint panel: choline transporter (CHT1) (h) (antagonist); format: binding; conditions: 1 micromolar, read-out: percentage of inhibition of activity
T16 construct: purchased Eurofins Pharma Discovery Services (KinaseProfiler; Cerep BioPrint panel)
Text: as §1

[19] = test system: Guanylyl cylcase; assay: BioPrint panel: Guanylyl cylcase (activator); format: biochemical; conditions: 1 micromolar
Text: as §1

[20] = molecular target: T17, AT2 (Homo sapiens, UniProt P50052); assay: BioPrint panel: AT2 (h) (agonist); format: binding; conditions: 1 micromolar, read-out: percentage of inhibition of activity
T17 construct: purchased Eurofins Pharma Discovery Services (KinaseProfiler; Cerep BioPrint panel)
Text: as §1

[21] = molecular target: T18, FP (Homo sapiens, UniProt P43088); assay: BioPrint panel: FP (h) (agonist); format: binding; conditions: 1 micromolar, read-out: percentage of inhibition of activity
T18 construct: purchased Eurofins Pharma Discovery Services (KinaseProfiler; Cerep BioPrint panel)
Text: as §1

[22] = test system: LAD2 cells degranulation; assay: Syk dependent LAD2 cells degranulation; format: cell-based, human
Experimental: Normal human bronchial epithelial cells (NHBE) (Lonza CC-2540,) corresponding to 2 different lots derived from 2 human healthy donors, henceforth referred to as donors #1 and #2, were purchased from Lonza, who provided the cells after obtaining permission for use in research applications by informed consent. Cells were cultured in 5% CO2 at 37°C according to the manufacturer´s instructions using Lonza´s Bronchial Epithelial Basal Medium (BEBM) (CC-3171) supplemented with Lonza´s Bronchial Epithelial Cell Growth Medium bullet kit (BEGM) (CC-4175), and grown in collagen coated T-75 and T-175 tissue culture flasks as required (Becton Dickinson 356485 and 356487). Subculturing after trypsinization and amplification was performed using Lonza´s reagent pack subculture reagents (CC-5034) following the manufacturer´s instructions. CHO-K1 and THP-1 cells were purchased from the ATCC through LGC standards (ATCC CCL-61 and TIB-202 respectively). The LAD2 cell line is a human mast cell line established at the National Institutes of Health (Bethesda, Maryland, U.S.).
Quantification of enzymatic p38 activity and p38-dependent TNF production in THP-1 cells was performed as previously described. Enzymatic Syk kinase activity assays and Syk dependent LAD2 cells degranulation assays were performed as previously described. PI3Kδ dependent pAkt phosphorylation in macrophage colony-stimulating factor (M-CSF) stimulated THP-1 cells was measured as previously described.

Chain of PDE6 (P11541 2-856): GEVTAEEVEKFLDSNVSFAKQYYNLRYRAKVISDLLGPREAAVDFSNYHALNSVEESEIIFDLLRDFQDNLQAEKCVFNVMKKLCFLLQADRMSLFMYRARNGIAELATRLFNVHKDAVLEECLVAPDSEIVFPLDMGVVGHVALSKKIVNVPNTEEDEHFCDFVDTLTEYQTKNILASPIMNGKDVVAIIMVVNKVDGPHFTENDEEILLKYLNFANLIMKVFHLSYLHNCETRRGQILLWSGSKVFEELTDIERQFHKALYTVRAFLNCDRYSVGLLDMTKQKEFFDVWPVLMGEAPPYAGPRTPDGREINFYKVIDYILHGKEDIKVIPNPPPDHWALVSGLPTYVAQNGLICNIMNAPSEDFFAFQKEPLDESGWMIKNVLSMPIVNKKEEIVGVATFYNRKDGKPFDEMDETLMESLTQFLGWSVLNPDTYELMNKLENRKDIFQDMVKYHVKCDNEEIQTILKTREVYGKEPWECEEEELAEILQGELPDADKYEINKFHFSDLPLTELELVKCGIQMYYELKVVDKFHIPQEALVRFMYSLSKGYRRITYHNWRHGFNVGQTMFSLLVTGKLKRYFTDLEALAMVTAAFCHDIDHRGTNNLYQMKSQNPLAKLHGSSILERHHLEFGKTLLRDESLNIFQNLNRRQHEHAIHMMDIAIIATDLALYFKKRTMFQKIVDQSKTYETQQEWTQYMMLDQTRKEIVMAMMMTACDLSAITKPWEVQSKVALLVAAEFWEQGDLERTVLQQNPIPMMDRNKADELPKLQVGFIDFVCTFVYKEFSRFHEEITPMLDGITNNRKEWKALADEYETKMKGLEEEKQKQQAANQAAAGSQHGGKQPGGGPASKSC
Chain of PDE6 (P23439 2-850): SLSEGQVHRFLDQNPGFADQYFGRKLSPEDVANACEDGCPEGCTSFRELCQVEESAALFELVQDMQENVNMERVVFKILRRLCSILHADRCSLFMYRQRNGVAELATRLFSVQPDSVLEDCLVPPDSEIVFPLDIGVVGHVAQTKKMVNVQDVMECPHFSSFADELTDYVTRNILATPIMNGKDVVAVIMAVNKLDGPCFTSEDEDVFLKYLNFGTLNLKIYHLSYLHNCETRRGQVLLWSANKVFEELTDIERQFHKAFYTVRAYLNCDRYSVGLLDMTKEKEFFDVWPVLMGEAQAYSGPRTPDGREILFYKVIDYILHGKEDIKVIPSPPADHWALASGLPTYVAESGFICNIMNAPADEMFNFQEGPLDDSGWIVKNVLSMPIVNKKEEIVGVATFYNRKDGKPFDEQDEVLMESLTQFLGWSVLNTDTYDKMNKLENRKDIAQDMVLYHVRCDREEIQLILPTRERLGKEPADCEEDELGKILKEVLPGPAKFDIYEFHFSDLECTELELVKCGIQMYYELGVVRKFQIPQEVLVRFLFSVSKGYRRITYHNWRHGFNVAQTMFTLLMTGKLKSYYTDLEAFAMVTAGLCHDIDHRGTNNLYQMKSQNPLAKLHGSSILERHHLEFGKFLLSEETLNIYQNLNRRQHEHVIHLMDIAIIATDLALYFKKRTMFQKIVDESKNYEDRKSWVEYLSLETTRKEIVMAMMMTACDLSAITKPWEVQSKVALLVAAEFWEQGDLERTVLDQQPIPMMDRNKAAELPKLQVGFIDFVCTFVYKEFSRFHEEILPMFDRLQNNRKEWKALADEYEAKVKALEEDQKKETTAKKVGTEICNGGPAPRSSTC
Chain of PDE6 (P04972 whole entry partner): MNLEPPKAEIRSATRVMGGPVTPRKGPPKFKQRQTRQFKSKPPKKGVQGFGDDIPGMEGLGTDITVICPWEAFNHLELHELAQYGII
T15 sequence (P08588 whole entry): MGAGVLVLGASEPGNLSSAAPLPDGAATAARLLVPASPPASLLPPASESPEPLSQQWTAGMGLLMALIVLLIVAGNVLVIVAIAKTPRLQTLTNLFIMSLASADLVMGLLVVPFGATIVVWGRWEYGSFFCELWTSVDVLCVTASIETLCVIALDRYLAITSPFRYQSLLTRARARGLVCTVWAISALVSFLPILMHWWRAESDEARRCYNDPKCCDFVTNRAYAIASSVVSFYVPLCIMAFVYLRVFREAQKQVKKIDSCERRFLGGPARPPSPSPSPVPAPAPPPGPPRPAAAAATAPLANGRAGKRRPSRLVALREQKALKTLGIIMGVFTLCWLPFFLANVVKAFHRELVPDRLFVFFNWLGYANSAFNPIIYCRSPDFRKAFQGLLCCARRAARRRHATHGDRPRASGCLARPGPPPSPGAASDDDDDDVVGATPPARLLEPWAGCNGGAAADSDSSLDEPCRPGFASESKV
T2 sequence (P21554 whole entry): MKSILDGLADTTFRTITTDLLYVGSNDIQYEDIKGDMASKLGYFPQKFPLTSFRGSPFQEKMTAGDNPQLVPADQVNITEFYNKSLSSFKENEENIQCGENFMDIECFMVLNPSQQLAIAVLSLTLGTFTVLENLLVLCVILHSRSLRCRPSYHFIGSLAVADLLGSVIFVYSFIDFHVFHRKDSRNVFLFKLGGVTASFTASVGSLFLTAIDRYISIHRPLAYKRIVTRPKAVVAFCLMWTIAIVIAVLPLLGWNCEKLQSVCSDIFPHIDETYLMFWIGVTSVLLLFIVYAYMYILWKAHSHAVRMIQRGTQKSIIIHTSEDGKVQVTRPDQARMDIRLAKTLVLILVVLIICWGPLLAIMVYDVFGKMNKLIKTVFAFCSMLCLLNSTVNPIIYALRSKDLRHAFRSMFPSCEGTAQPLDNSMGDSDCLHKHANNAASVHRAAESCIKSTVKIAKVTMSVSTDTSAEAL
T11 sequence (P80457 whole entry): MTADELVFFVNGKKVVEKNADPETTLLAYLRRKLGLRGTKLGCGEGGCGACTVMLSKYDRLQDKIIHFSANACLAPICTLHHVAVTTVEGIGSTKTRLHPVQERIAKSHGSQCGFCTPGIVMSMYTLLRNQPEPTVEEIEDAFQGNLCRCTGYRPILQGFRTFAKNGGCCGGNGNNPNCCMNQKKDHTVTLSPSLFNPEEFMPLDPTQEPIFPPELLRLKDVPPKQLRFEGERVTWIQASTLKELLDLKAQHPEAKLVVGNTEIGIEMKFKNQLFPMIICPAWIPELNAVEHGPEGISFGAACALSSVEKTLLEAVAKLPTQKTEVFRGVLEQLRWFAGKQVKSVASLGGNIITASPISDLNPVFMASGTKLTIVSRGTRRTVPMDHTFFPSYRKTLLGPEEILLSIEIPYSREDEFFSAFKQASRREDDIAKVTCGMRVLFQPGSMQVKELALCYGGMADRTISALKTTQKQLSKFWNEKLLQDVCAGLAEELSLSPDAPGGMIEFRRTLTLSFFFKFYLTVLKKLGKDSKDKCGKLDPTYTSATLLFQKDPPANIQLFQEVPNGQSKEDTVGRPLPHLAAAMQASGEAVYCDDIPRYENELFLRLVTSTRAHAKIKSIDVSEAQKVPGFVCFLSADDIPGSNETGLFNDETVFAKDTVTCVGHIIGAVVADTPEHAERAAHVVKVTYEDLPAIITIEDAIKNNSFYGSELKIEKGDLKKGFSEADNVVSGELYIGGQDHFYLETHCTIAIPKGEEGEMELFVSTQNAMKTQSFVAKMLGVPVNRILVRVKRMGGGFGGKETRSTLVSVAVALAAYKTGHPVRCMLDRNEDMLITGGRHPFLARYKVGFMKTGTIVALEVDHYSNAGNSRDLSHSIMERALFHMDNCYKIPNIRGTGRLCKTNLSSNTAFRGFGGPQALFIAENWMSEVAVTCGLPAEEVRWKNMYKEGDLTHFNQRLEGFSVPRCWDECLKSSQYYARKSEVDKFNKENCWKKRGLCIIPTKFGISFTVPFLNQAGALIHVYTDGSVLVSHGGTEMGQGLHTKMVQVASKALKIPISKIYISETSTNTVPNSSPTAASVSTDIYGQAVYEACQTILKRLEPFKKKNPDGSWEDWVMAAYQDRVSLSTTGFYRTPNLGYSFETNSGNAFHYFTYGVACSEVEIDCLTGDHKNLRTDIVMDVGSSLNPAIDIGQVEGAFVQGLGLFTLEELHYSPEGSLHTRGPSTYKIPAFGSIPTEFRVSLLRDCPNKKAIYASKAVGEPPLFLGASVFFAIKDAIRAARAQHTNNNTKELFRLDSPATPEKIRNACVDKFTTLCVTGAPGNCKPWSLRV
T17 sequence (P50052 whole entry): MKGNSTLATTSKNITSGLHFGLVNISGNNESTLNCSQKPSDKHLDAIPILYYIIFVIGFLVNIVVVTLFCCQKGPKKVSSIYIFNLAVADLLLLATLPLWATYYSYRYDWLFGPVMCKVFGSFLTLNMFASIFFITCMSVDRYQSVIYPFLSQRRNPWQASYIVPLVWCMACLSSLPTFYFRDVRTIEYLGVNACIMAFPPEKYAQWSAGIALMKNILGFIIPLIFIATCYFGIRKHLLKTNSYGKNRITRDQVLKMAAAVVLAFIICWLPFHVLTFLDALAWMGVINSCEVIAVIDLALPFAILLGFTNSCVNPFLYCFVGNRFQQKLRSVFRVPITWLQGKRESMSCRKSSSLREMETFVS
T7 sequence (P34975 whole entry): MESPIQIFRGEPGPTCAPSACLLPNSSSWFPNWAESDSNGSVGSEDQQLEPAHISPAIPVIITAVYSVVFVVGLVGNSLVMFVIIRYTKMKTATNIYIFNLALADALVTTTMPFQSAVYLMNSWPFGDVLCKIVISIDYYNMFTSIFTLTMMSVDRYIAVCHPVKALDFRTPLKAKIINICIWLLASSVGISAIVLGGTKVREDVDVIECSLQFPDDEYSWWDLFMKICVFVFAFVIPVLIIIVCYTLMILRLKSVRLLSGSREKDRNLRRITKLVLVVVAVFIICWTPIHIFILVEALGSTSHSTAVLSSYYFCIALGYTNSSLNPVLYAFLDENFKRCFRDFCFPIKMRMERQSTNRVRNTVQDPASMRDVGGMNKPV

Work on `Cn1cc(-c2cccc(-c3nc(C(=O)NC4C5CC6CC4CC(O)(C6)C5)c(N)nc3N)c2)cn1` (stereo not drawn) [compound 4] yielded an inhibition at 1 µM [1] of 0%, an inhibition at 1 µM [2] of 3.7% and an inhibition at 1 µM [3] of -4.9%. It also gave an inhibition at 1 µM [4] of -8.1%, an inhibition at 1 µM ([5]; 1 μM, read-out: inhibition of PDE6) of 55% and an inhibition at 1 µM ([5]; 1 micromolar, PDE6 (non-selective), read-out: percentage of inhibition of activity) of 55.6%. The inhibition at 1 µM [6] was -14.1%, the inhibition at 1 µM [7] was -5.3% and the inhibition at 1 µM [8] was 11.8%. For the same molecule, the inhibition at 1 µM [9] was -1.8%, the inhibition at 1 µM [10] was 5.5% and the “percentage of inhibition of activity” value [11] was “INTER”. For the same molecule, the inhibition at 1 µM [12] was -15.3%, the inhibition at 1 µM [13] was 2.4% and the “percentage of inhibition of activity” value [14] was 0%. The inhibition at 1 µM [15] was -3.6%, the inhibition at 1 µM [16] was 1.2% and the inhibition at 1 µM [17] was -1.8%. For the same molecule, the inhibition at 1 µM [18] was 3%, the “percentage of inhibition of activity” value [19] was 0% and the inhibition at 1 µM [20] was -8%. It also gave an inhibition at 1 µM [21] of 4.8%.
With `CS(=O)(=O)N1CCN(c2ccc(Nc3ncc(C(N)=O)c(NC4CC4)n3)cc2)CC1` [compound 5] the IC50 ([22]; Homo sapiens, LAD2, geometric mean, read-out: Activity in reference cell based assay (IC50, μM) (95% CI) LAD2 cells degranulation) was 0.019 µM and the IC50 ([22]; individual values, read-out: Cellular activity (IC50, mM) LAD2 cells degranulation) was 0.0341 µM and 0.015 µM and 0.0149 µM.
